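Values below derive from 48-hour exposures of cells grown in 96-well plates, with endpoints linearly interpolated between the two concentrations bracketing the appropriate inhibition level. Definition used: TGI = concentration required for complete inhibition of growth.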
What was measured:
Assay in all cases: inhibition of tumour cell growth, NCI panel, 48 h
786-0 renal = tested on: 786-0 renal
A498 renal = tested on: A498 renal
A549 NSCLC = tested on: A549 NSCLC
ACHN renal = tested on: ACHN renal
BT-549 breast = tested on: BT-549 breast
CAKI-1 renal = tested on: CAKI-1 renal
CCRF-CEM leukemia = tested on: CCRF-CEM leukemia
COLO 205 colon = tested on: COLO 205 colon
EKVX NSCLC = tested on: EKVX NSCLC
HCC-2998 colon = tested on: HCC-2998 colon
HCT-116 colon = tested on: HCT-116 colon
HCT-15 colon = tested on: HCT-15 colon
HL-60(TB) leukemia = tested on: HL-60(TB) leukemia
HOP-62 NSCLC = tested on: HOP-62 NSCLC
HOP-92 NSCLC = tested on: HOP-92 NSCLC
HS 578T breast = tested on: HS 578T breast
HT29 colon = tested on: HT29 colon
IGROV1 ovarian = tested on: IGROV1 ovarian
K-562 leukemia = tested on: K-562 leukemia
KM12 colon = tested on: KM12 colon
LOX IMVI melanoma = tested on: LOX IMVI melanoma
M14 melanoma = tested on: M14 melanoma
MALME-3M melanoma = tested on: MALME-3M melanoma
MDA-MB-231 breast = tested on: MDA-MB-231 breast
MDA-MB-435 = tested on: MDA-MB-435
MDA-N = tested on: MDA-N
MOLT-4 leukemia = tested on: MOLT-4 leukemia
NCI-H226 lung = tested on: NCI-H226 lung
NCI-H23 lung = tested on: NCI-H23 lung
NCI-H460 lung = tested on: NCI-H460 lung
NCI-H522 lung = tested on: NCI-H522 lung
NCI/ADR-RES ovarian = tested on: NCI/ADR-RES ovarian
OVCAR-3 ovarian = tested on: OVCAR-3 ovarian
OVCAR-4 ovarian = tested on: OVCAR-4 ovarian
OVCAR-5 ovarian = tested on: OVCAR-5 ovarian
OVCAR-8 ovarian = tested on: OVCAR-8 ovarian
PC-3 prostate = tested on: PC-3 prostate
RPMI-8226 leukemia = tested on: RPMI-8226 leukemia
RXF 393 renal = tested on: RXF 393 renal
SF-268 CNS = tested on: SF-268 CNS
SF-295 CNS = tested on: SF-295 CNS
SF-539 CNS = tested on: SF-539 CNS
SK-MEL-2 melanoma = tested on: SK-MEL-2 melanoma
SK-MEL-28 melanoma = tested on: SK-MEL-28 melanoma
SK-MEL-5 melanoma = tested on: SK-MEL-5 melanoma
SK-OV-3 ovarian = tested on: SK-OV-3 ovarian
SN12C renal = tested on: SN12C renal
SNB-19 CNS = tested on: SNB-19 CNS
SNB-75 CNS = tested on: SNB-75 CNS
SR leukemia = tested on: SR leukemia
SW-620 colon = tested on: SW-620 colon
T-47D breast = tested on: T-47D breast
TK-10 renal = tested on: TK-10 renal
U251 CNS = tested on: U251 CNS
UACC-257 melanoma = tested on: UACC-257 melanoma
UO-31 renal = tested on: UO-31 renal
DU-145 prostate = tested on: DU-145 prostate
MCF7 breast = tested on: MCF7 breast
UACC-62 melanoma = tested on: UACC-62 melanoma

Compound: [N-]=[N+]=Nc1c(N2CCOCC2)c(Cl)nc2ccccc12
- TGI (786-0 renal): > 100 µM
- TGI (A498 renal): > 100 µM
- TGI (A549 NSCLC): > 100 µM
- TGI (ACHN renal): > 100 µM
- TGI (BT-549 breast): > 100 µM
- TGI (CAKI-1 renal): > 100 µM
- TGI (CCRF-CEM leukemia): > 100 µM
- TGI (COLO 205 colon): > 100 µM
- TGI (EKVX NSCLC): > 100 µM
- TGI (HCC-2998 colon): > 100 µM
- TGI (HCT-116 colon): > 100 µM
- TGI (HCT-15 colon): > 100 µM
- TGI (HL-60(TB) leukemia): > 100 µM
- TGI (HOP-62 NSCLC): > 100 µM
- TGI (HOP-92 NSCLC): > 100 µM
- TGI (HS 578T breast): > 100 µM
- TGI (HT29 colon): 72.9 µM
- TGI (IGROV1 ovarian): > 100 µM
- TGI (K-562 leukemia): > 100 µM
- TGI (KM12 colon): 88.6 µM
- TGI (LOX IMVI melanoma): > 100 µM
- TGI (M14 melanoma): > 100 µM
- TGI (MALME-3M melanoma): > 100 µM
- TGI (MDA-MB-231 breast): > 100 µM
- TGI (MDA-MB-435): > 100 µM
- TGI (MDA-N): > 100 µM
- TGI (MOLT-4 leukemia): > 100 µM
- TGI (NCI-H226 lung): > 100 µM
- TGI (NCI-H23 lung): > 100 µM
- TGI (NCI-H460 lung): > 100 µM
- TGI (NCI-H522 lung): > 100 µM
- TGI (NCI/ADR-RES ovarian): > 100 µM
- TGI (OVCAR-3 ovarian): > 100 µM
- TGI (OVCAR-4 ovarian): > 100 µM
- TGI (OVCAR-5 ovarian): > 100 µM
- TGI (OVCAR-8 ovarian): > 100 µM
- TGI (PC-3 prostate): > 100 µM
- TGI (RPMI-8226 leukemia): > 100 µM
- TGI (RXF 393 renal): > 100 µM
- TGI (SF-268 CNS): > 100 µM
- TGI (SF-295 CNS): > 100 µM
- TGI (SF-539 CNS): > 100 µM
- TGI (SK-MEL-2 melanoma): > 100 µM
- TGI (SK-MEL-28 melanoma): > 100 µM
- TGI (SK-MEL-5 melanoma): 49.6 µM
- TGI (SK-OV-3 ovarian): > 100 µM
- TGI (SN12C renal): > 100 µM
- TGI (SNB-19 CNS): > 100 µM
- TGI (SNB-75 CNS): > 100 µM
- TGI (SR leukemia): > 100 µM
- TGI (SW-620 colon): > 100 µM
- TGI (T-47D breast): > 100 µM
- TGI (TK-10 renal): > 100 µM
- TGI (U251 CNS): > 100 µM
- TGI (UACC-257 melanoma): 78.3 µM
- TGI (UO-31 renal): > 100 µM

Compound: CC1(C)CN=C(Nc2ccc(F)cc2)S1
- TGI (786-0 renal): > 100 µM
- TGI (A549 NSCLC): > 100 µM
- TGI (ACHN renal): > 100 µM
- TGI (BT-549 breast): > 100 µM
- TGI (CAKI-1 renal): > 100 µM
- TGI (CCRF-CEM leukemia): > 100 µM
- TGI (COLO 205 colon): > 100 µM
- TGI (DU-145 prostate): > 100 µM
- TGI (EKVX NSCLC): > 100 µM
- TGI (HCC-2998 colon): > 100 µM
- TGI (HCT-116 colon): > 100 µM
- TGI (HCT-15 colon): > 100 µM
- TGI (HL-60(TB) leukemia): > 100 µM
- TGI (HOP-62 NSCLC): > 100 µM
- TGI (HOP-92 NSCLC): > 100 µM
- TGI (HS 578T breast): > 100 µM
- TGI (HT29 colon): > 100 µM
- TGI (IGROV1 ovarian): > 100 µM
- TGI (K-562 leukemia): > 100 µM
- TGI (KM12 colon): > 100 µM
- TGI (LOX IMVI melanoma): > 100 µM
- TGI (M14 melanoma): > 100 µM
- TGI (MALME-3M melanoma): > 100 µM
- TGI (MCF7 breast): > 100 µM
- TGI (MDA-MB-435): > 100 µM
- TGI (MDA-N): > 100 µM
- TGI (MOLT-4 leukemia): > 100 µM
- TGI (NCI-H226 lung): > 100 µM
- TGI (NCI-H23 lung): > 100 µM
- TGI (NCI-H522 lung): > 100 µM
- TGI (NCI/ADR-RES ovarian): > 100 µM
- TGI (OVCAR-3 ovarian): > 100 µM
- TGI (OVCAR-4 ovarian): > 100 µM
- TGI (OVCAR-5 ovarian): > 100 µM
- TGI (OVCAR-8 ovarian): > 100 µM
- TGI (PC-3 prostate): > 100 µM
- TGI (RPMI-8226 leukemia): > 100 µM
- TGI (RXF 393 renal): > 100 µM
- TGI (SF-268 CNS): > 100 µM
- TGI (SF-295 CNS): > 100 µM
- TGI (SF-539 CNS): > 100 µM
- TGI (SK-MEL-2 melanoma): > 100 µM
- TGI (SK-MEL-28 melanoma): > 100 µM
- TGI (SK-MEL-5 melanoma): > 100 µM
- TGI (SK-OV-3 ovarian): > 100 µM
- TGI (SN12C renal): > 100 µM
- TGI (SNB-19 CNS): > 100 µM
- TGI (SNB-75 CNS): > 100 µM
- TGI (SR leukemia): > 100 µM
- TGI (SW-620 colon): > 100 µM
- TGI (T-47D breast): > 100 µM
- TGI (TK-10 renal): > 100 µM
- TGI (U251 CNS): > 100 µM
- TGI (UACC-257 melanoma): > 100 µM
- TGI (UACC-62 melanoma): > 100 µM
- TGI (UO-31 renal): > 100 µM

Compound: CC(C)(C)c1cc(OCc2nnc3sc(-c4ccc(Cl)cc4)nn23)c(Cl)cc1OCc1nnc2sc(-c3ccc(Cl)cc3)nn12
- TGI (786-0 renal): 16.5 µM
- TGI (A498 renal): 26.1 µM
- TGI (A549 NSCLC): 20.4 µM
- TGI (ACHN renal): 24.4 µM
- TGI (BT-549 breast): 34.6 µM
- TGI (CAKI-1 renal): 11.4 µM
- TGI (COLO 205 colon): 29.3 µM
- TGI (DU-145 prostate): 31.3 µM
- TGI (EKVX NSCLC): 97.9 µM
- TGI (HCC-2998 colon): 9.72 µM
- TGI (HCT-116 colon): 26 µM
- TGI (HCT-15 colon): 38.8 µM
- TGI (HL-60(TB) leukemia): 7.36 µM
- TGI (HOP-62 NSCLC): 51.4 µM
- TGI (HOP-92 NSCLC): 16.3 µM
- TGI (HS 578T breast): > 100 µM
- TGI (HT29 colon): 83.6 µM
- TGI (IGROV1 ovarian): 21.4 µM
- TGI (K-562 leukemia): 12.5 µM
- TGI (KM12 colon): 11.1 µM
- TGI (LOX IMVI melanoma): 54.2 µM
- TGI (M14 melanoma): 88.6 µM
- TGI (MALME-3M melanoma): 21.8 µM
- TGI (MCF7 breast): 10.9 µM
- TGI (MDA-MB-231 breast): 38.3 µM
- TGI (MDA-N): 3.46 µM
- TGI (MOLT-4 leukemia): 31.2 µM
- TGI (NCI-H226 lung): 54.3 µM
- TGI (NCI-H23 lung): 20.6 µM
- TGI (NCI-H460 lung): 12.9 µM
- TGI (NCI-H522 lung): 29.9 µM
- TGI (NCI/ADR-RES ovarian): 35.6 µM
- TGI (OVCAR-3 ovarian): 8.73 µM
- TGI (OVCAR-4 ovarian): 57.8 µM
- TGI (OVCAR-5 ovarian): 88.9 µM
- TGI (OVCAR-8 ovarian): 19.8 µM
- TGI (PC-3 prostate): > 100 µM
- TGI (RPMI-8226 leukemia): 23.6 µM
- TGI (RXF 393 renal): 19.3 µM
- TGI (SF-268 CNS): > 100 µM
- TGI (SF-295 CNS): 18.2 µM
- TGI (SF-539 CNS): 15.2 µM
- TGI (SK-MEL-2 melanoma): 44.9 µM
- TGI (SK-MEL-28 melanoma): 33.3 µM
- TGI (SK-MEL-5 melanoma): 3.47 µM
- TGI (SK-OV-3 ovarian): 27 µM
- TGI (SN12C renal): > 100 µM
- TGI (SNB-19 CNS): 87.6 µM
- TGI (SNB-75 CNS): 9.8 µM
- TGI (SR leukemia): 2.91 µM
- TGI (SW-620 colon): 32.9 µM
- TGI (T-47D breast): 14.9 µM
- TGI (TK-10 renal): 36.8 µM
- TGI (U251 CNS): 28.7 µM
- TGI (UACC-257 melanoma): 40.7 µM
- TGI (UACC-62 melanoma): 39.1 µM
- TGI (UO-31 renal): 26.1 µM
